Molecular target: T1, Calpain I (Homo sapiens, UniProt P07384)
T1 construct: made in house
T1 sequence (P07384 1-714): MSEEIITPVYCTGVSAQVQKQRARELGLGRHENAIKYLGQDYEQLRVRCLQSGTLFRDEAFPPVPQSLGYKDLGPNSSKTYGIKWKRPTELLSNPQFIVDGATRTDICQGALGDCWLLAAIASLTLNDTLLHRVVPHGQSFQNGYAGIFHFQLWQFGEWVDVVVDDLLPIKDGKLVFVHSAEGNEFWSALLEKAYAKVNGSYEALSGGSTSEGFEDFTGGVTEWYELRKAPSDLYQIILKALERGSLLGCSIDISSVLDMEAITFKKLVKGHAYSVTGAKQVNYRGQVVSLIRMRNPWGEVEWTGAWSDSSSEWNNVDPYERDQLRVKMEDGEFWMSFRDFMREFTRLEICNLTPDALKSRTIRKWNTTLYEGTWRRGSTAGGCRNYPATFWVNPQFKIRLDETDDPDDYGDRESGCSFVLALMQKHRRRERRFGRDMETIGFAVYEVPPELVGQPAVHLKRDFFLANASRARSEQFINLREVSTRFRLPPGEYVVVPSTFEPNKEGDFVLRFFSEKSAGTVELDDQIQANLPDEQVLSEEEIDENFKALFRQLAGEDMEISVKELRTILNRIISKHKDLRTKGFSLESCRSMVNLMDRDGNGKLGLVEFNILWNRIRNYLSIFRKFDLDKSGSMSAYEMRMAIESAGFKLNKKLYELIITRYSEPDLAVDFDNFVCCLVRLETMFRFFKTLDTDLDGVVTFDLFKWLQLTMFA
T1 sequence (P04632 1-268 partner): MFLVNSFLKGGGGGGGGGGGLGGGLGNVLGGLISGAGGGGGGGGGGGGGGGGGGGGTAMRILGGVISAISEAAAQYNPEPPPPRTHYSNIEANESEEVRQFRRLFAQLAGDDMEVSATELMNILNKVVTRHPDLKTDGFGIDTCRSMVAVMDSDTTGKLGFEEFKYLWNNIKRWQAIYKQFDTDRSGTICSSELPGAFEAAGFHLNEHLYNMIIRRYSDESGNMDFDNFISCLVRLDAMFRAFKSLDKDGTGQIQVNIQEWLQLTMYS
Assay: Inhibition and rate of inactivation of calpain I activity (Succ-Leu-Tyr-MNA substrate hydrolysis)
Format: biochemical
Conditions: for kobs/I: apparent second order rate constant of inactivation, pseudo-first order conditions, compounds tested at 0.1 µM, mean of three or more single cuvette analyses
Protocol: Inhibition and Rate of Inactivation of Cysteine Protease Activity
To evaluate inhibitory activity, stock solutions (40 times concentrated) of each compound to be tested were prepared in 100% anhydrous DMSO and 5 µl of each inhibitor preparation were aliquoted into each of three wells of a 96 well plate. Calpain I, prepared by a modification of the method of W. J. Lee et al. (Biochem. Internatl. 22: 163-171 (1990)), was diluted into assay buffer (i.e., 50mM Tris, 50mM NaCl, 1mM EDTA, 1mM EGTA, and 5mM β-mercaptoethanol, pH 7.5 including 0.2mM Succ-Leu-Tyr-MNA) and 175 µl aliquoted into the same wells containing the independent inhibitor stocks as well as to positive control wells containing 5 µl DMSO, but no compound. To start the reaction, 20 µl of 50 mM CaCl2 in assay buffer was added to all wells of the plate, excepting three, which were used as background signal baseline controls. Substrate hydrolysis was monitored every 5 minutes for a total of 30 minutes. Substrate hydrolysis in the absence of inhibitor was linear for up to 15 minutes.
Inhibition of calpain I activity was calculated as the percent decrease in the rate of substrate hydrolysis in the presence of inhibitor (vi) relative to the rate in its absence (vo). Comparison between vo and vi was made within the linear range for substrate hydrolysis. […] Apparent second order rate constants were determined from analysis of reaction progress curves under pseudo-first order conditions. Each determination represents the mean of three or more independent single cuvette analyses continually monitored via a Perkin-Elmer LS50B spectrofluorimeter.
Values for kobs/I are given in Table I for compounds tested at 0.1 µM. [drawing 8]

SMILES | kobs/I | % Inhib. @ 0.1 uM (0.1 uM compound, percent decrease in rate of substrate hydrolysis relative to no inhibitor)
CC(C)C[C@H](NC(=O)OC(C)(C)C)C(=O)N[C@@H](Cc1ccccc1)C(=O)COP(=O)(OCc1ccccc1)OCc1ccccc1 [Example 35, Dibenzyl (3S)-[3-[(N-t-Butoxycarbonyl-L-leucyl)amino]-2-oxo-4-phenylbutyl]phosphate] | 242000 M⁻¹ s⁻¹ | –
CC(C)C[C@H](NC(=O)C12OC(CO)C(O)C1OC(C)(C)O2)C(=O)N[C@@H](Cc1ccccc1)C(=O)COP(=O)(OCc1ccccc1)OCc1ccccc1 (stereo partly drawn) [Example 38, Dibenzyl (3S)-[3-[(N-monoisopropylidine-2-keto-L-gulonyl-L-leucyl)amino]-2-oxo-4-phenylbutyl] phosphate)] | 116000 M⁻¹ s⁻¹ | –
CC(C)CC(NC(=O)C12OC3COC(C)(C)OC3C1OC(C)(C)O2)C(=O)NC(Cc1ccccc1)C(=O)COP(=O)(OCc1ccccc1)OCc1ccccc1 [Example 37, Dibenzyl (3S)-[3-[(N-diisopropylidine-2-keto-L-gulonyl-L-leucyl)amino]-2-oxo-4-phenylbutyl] phosphate] | 113000 M⁻¹ s⁻¹ | –
CC(C)C[C@H](NS(=O)(=O)N1CCOCC1)C(=O)N[C@@H](Cc1ccccc1)C(=O)COP(=O)(OCc1ccccc1)OCc1ccccc1 [Example 36, Dibenzyl (3S)-[3-[(N-morpholinylsulfonyl-L-leucyl)amino]-2-oxo-4-phenylbutyl] phosphate] | 182000 M⁻¹ s⁻¹ | –
CC(C)C[C@H](NC(=O)OCc1ccccc1)C(=O)N[C@@H](Cc1ccccc1)C(=O)COP1(=O)OCC(OCc2ccccc2)CO1 (some centres unmarked) [Example 47] | – | 47%

Reference: patent EP0871454B1, “PHOSPHOROUS-CONTAINING CYSTEINE AND SERINE PROTEASE INHIBITORS” (CEPHALON, INC., priority 1995, dated 1997)
